According to patent US11540515B2, “Use of dialkoxybenzenes for control of honey bee mite varroa destructor” (Simon Fraser University, priority 2018, dated 2023):

Key:
Varroa mites [1] = assay: Evaluation of acaricidal effect: emerging bees loaded with Varroa mites in glass petri dish, compound on Parafilm; assay type: in vivo, Varroa destructor
Experimental: The effect of the compounds was checked in free moving-mites freshly collected from the bottom board using fine paint brush. All collected Varroa were kept on emerging bees at room temperature until the experiment.
Compounds (code-labeled, Table 1) were prepared in hexane:ethyl acetate (1:1) in 10 mM concentration according to instructions. Dilutions only of compound “A” was prepared. […] This setup enabled the testing of all the compounds and to save the mites.
The assay was conducted in glass petri dish (90 mm diameter and 17 mm deep glass) containing moistened filter paper. Five emerging bees loaded with two Varroa mites were put into each plate. The bees were provided with candy (60% of pollen and 40% sugar). 10 μl or 30 μl volume of each compound or control mix was placed on Parafilm paper (5×5 cm) on the plates cover.

Varroa [2] = assay: Choice bioassay (forager vs nurse bee) in petri dish; assay type: in vivo, Varroa destructor; conditions: in presence of compound, monitored for 3 hours
Experimental: Functional activity of the compound was performed using choice bioassay. Briefly, in the presence of the synthetic compound or solvent as a control, the mites were given a choice of two bees (a forager and a nurse) in a petri dish (90 mm diameter and 17 mm deep glass). The movement of Varroa and its host preference were monitored at every hour for 3 hours.

Varroa mites [3] = assay: Example 2 dose response assay on 10 mites per plate; assay type: in vivo, Varroa destructor; conditions: doses in microgram
Experimental: (§1) The experiments were conducted in glass petri dish under control environment as described above in Example 1. Two sets of experiments were conducted compound 3c{3,6}:
1. Dose response assay on 10 mites per plate. Doses are in microgram.
In the first assay the percentage of dead mites as function of exposure time to different quantities of the compound was measured. […] The effective doses are relatively high.

young bees = assay: Example 2 assay on mites phoretic on young bees: condition of the bees; assay type: in vivo, Apis mellifera; conditions: end of experiment
Experimental: as §1
2. Assay on mites phoretic on young bees. In this experiment 100 microgram/μ1 solution and its dilutions were used. Two mites were placed on each living young bee.
In the second assay the percentage of mites dropping from bees as function of time was measured (FIG. 2).

Varroa destructor mites [4] = assay: Example 3 paralysis assays in petri dishes (dose response, screen, blends); assay type: in vivo
Experimental: Paralysis assays. These assays were done in 10 cm glass Petri dishes. A 3×3 cm piece of Parafilm was stuck to the lid of the dish, in the middle. The Parafilm received […], either pure (controls) or with the compound (treatments). The bottom of the dish received one freshly thawed nurse and one freshly thawed forager, placed ˜3 cm from the center of the dish. One mite was placed between the nurse and the forager, the lid was closed and groups of dishes were placed in an incubator at 30° C. Humidity levels were kept at around 35-40%.
Observation times were 3 h and 5 h. Mites were scored for whether the mite could move normally, was paralyzed (had difficulty moving) or dead (not moving).
Each assay was done in 5 technical replicates, in two biological replicates. Thus, each biological replicate was scored out of 5.
(§2) Experiments were performed in the dishes: i) dose response assays with a single compound at different doses of compound on the Parafilm (1 ng, 10 ng, 100 ng, 1 μg, 10 μg, 100 μg, 1 mg and 10 mg), ii) a screen with six compounds, all at a 1 mg dose, iii) an assay with blends of compounds 3c{3,6} and 3c{6,6}, and iv) one assay without bees (only to check for mite paralysis and death), with compounds 3c{3,6} and 3c{6,6}(pure or 1:1 blend), at 0.5 and 1 mg doses.

Varroa destructor mites [5] = assay: Example 3 mite paralysis/death in the absence of bees; assay type: in vivo; conditions: no bees
Experimental: as §2
Compounds 3c{3,6}, 3c{6,6} were tested on mites in the absence of bees, alone and as a 1:1 blend. Mite paralysis and death were checked every 30 min, up to 4.5 h after initial exposure. Four doses were tested: 0.2, 0.5, 1 and 10 mg.

[6] = system: Varroa mites in honey bee colony; assay: Colony test with solid 3c{3,6} in organza bags; assay type: in vivo, Varroa destructor; conditions: after each addition of solid compound in sachets
Experimental: Colony test. One colony of two supers was treated with solid 3c{3,6}, delivered in organza bags. The colony was otherwise healthy (apart from having Varroa mites), and the bee cluster reached over both boxes. Above the top box was placed a queen excluder and a top-feeding box. The following treatments were done: i) Day 1: 4×60 mg with bags placed above the cluster in the top box (below the queen excluder) only; ii) After 30 days: 4×60 mg with bags placed above the cluster in the top box (below the queen excluder) only; iii) After an additional 14 days, 4×100 mg with two bags placed on top of the lower box (i.e. between the two boxes) and two bags placed on top of the cluster on the top box (just below the queen excluder) iv) After an additional 7 days, 4×100 mg was added and the bags from the previous week were kept in. On the third treatment two Pasteur pipettes with Porapak (wedged between glass wool plugs in the pipette) were installed, one in the middle of the top cluster, the other on the edge of the cluster. These were removed. The colony was fitted with a screened bottom platform and a white Varroa counting drawer underneath the screen. Mites on the counting drawer board were counted every few days.
Porapak cartridges were extracted with hexane:ethyl acetate (4:1) with 40 ng/μL of 1,4-dimethoxybenzene as internal standard. […]

Varroa [7] = assay: Example 5 Varroa death and paralysis assay, single compounds and blend; design: species or system Varroa destructor; conditions: in vivo
Experimental: Assays were done in 9 cm glass Petri dishes. A 2.5×2.5 cm piece of Parafilm was stuck to the lid of the dish, in the middle. 120 μL water were put on filter paper in the middle of the plate. The Parafilm received 10 μL of hexane, either pure (controls) or with the compound (treatments). The bottom of the dish received one freshly thawed nurse and one freshly thawed forager, placed at opposite sides. One mite was placed between the nurse and the forager, the lid was closed and groups of dishes were placed in an incubator at 30° C. Observation times were at 3 h, 5 h and 20 h. Mites were scored for whether the mite could move normally, was paralyzed (had difficulty moving) or dead (not moving). Four types of experiment were performed in the dishes: i) dose response assays with a single compound at different doses of compound on the Parafilm (1 ng, 10 ng, 100 ng, 1 μg, 10 μg, 100 μg, 1 mg) an assay with blends of compounds 3c{3,6} and 3c{6,6} (pure or 1:1 blend) at 0.5 mg and […].

## C=CCOc1ccc(OCCC)cc1 [3c{3,6}, 1-allyloxy-4-propoxybenzene]
Varroa mites [1]; dilutions of 10 mM solution, any concentration
  miticidal effect of dilutions: no miticidal effect
Varroa mites [1]; highest amount tested (30 μl), end of 24 h
  acaricidal effect: clear acaricidal effect
Varroa [2]
  ability of Varroa to reach any host: decreased
Varroa mites [3]
  percentage of dead mites as function of exposure time to different quantities (acaricidal effect, FIG. 1): clear and it is dose dependent
Young bees
  condition of bees: remained in perfect shape
Varroa destructor mites [4]; 1 mg dose, 3 h
  paralysis and mite death in screen: most reliable mite paralysis
Varroa destructor mites [4]; 0.5 and 1 mg/treatment
  net paralysis+death of mites, comparison of compounds: more active than 3c{6,6}
Varroa destructor mites [4]; neat compound on the source, vapors only, 3 h
  EC50 for paralysis and eventual death of mites: 41.5 µg
Varroa destructor mites [5]; 0.2 mg, 4.5 h
  mite paralysis+death: 40%
Varroa destructor mites [5]; 0.5 mg, 4.5 h
  mite paralysis+death: 80%
Varroa destructor mites [5]; 1 mg, up to 4.5 h
  mite paralysis or death: 100%
Varroa destructor mites [5]; 10 mg, 4.5 h
  mite paralysis or death: 100%
[6]
  number of mites found on the bottom board per day: spike in the number of mites
Varroa [7]
  acaricidal activity alone: acaricidal
